Test results from PubChem BioAssay (NCI).
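Grown in 96-well plates, cells were treated for 48 hours with each compound at five concentrations. Insufficient inhibition: endpoint recorded as highest concentration tested. The concentration for 50% growth inhibition is given as GI50. TGI is the concentration that stops growth completely.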

What was measured:
Experiment in all cases: growth of human tumour cells (NCI), 48 h
COLO 205 colon = tested on: COLO 205 colon
U251 CNS = tested on: U251 CNS
SK-MEL-5 melanoma = tested on: SK-MEL-5 melanoma
UACC-257 melanoma = tested on: UACC-257 melanoma
MDA-MB-435 = tested on: MDA-MB-435
HCT-15 colon = tested on: HCT-15 colon
M14 melanoma = tested on: M14 melanoma
786-0 renal = tested on: 786-0 renal
PC-3 prostate = tested on: PC-3 prostate
SW-620 colon = tested on: SW-620 colon

Compound	GI50 (COLO 205 colon)	TGI (COLO 205 colon)	GI50 (U251 CNS)	TGI (U251 CNS)	GI50 (SK-MEL-5 melanoma)	TGI (SK-MEL-5 melanoma)	GI50 (UACC-257 melanoma)	TGI (UACC-257 melanoma)	GI50 (MDA-MB-435)	TGI (MDA-MB-435)	GI50 (HCT-15 colon)	TGI (HCT-15 colon)	GI50 (M14 melanoma)	TGI (M14 melanoma)	GI50 (786-0 renal)	TGI (786-0 renal)	GI50 (PC-3 prostate)	TGI (PC-3 prostate)	GI50 (SW-620 colon)	TGI (SW-620 colon)
O=C1c2ccccc2C(=O)c2c(NCCN=Cc3ccccc3O)cccc21	1.41 µM	3.82 µM	5.06 µM	19.5 µM	1.51 µM	5.2 µM	4.84 µM	13.4 µM	2.51 µM	7.4 µM	4.03 µM	16.7 µM	7.44 µM	32.7 µM	6.8 µM	37.9 µM	2.18 µM	8.1 µM	2.14 µM	7.07 µM
Cc1ccc2occ/c(=N\Nc3ccccc3)c2c1	–	> 100 µM	–	> 100 µM	–	> 100 µM	–	> 100 µM	–	> 100 µM	–	> 100 µM	–	> 100 µM	–	> 100 µM	–	> 100 µM	–	> 100 µM
O=C(CCN1CCOCC1)Nc1cccc(-n2cc(-c3ccncc3)c(-c3ccc(Cl)c(O)c3)n2)c1	1.66 µM	4.27 µM	3.32 µM	12.8 µM	0.621 µM	2.36 µM	1.9 µM	4.42 µM	0.313 µM	1.29 µM	1.24 µM	10.8 µM	1.53 µM	4.16 µM	1.9 µM	4.75 µM	1.74 µM	12.9 µM	1.56 µM	12.6 µM
Cc1noc2c1-c1ccccc1C(c1ccc(Cl)cc1)=N[C@H]2CC(N)=O	0.646 µM	> 51.7 µM	20 µM	> 100 µM	6.96 µM	> 75.2 µM	7.4 µM	> 100 µM	2.78 µM	> 100 µM	2.49 µM	> 100 µM	2.37 µM	> 100 µM	10.9 µM	> 100 µM	12 µM	> 100 µM	26.1 µM	> 100 µM
CNC(C)[C@H]1CCC2C3CC=C4C(=O)[C@@H](NC(=O)C=C(C)C)CC[C@]4(C)C3CC[C@@]21C (stereo not given in full)	1.51 µM	2.99 µM	2.19 µM	11.8 µM	1.14 µM	2.39 µM	2.33 µM	5.54 µM	1.36 µM	3.27 µM	1.14 µM	2.89 µM	1.72 µM	3.45 µM	1.56 µM	3.16 µM	1.9 µM	11.5 µM	1.7 µM	4.03 µM
C=C1C(=O)OC2C1CC(OC(C)=O)/C(C)=C/CCC1(C)OC21 (stereo not given)	–	> 100 µM	–	> 100 µM	–	> 100 µM	–	> 100 µM	–	> 100 µM	–	> 100 µM	–	> 100 µM	–	> 100 µM	–	> 100 µM	–	> 100 µM
Clc1nc(Cl)c2ncn(Cc3ccccc3Cn3cnc4c(Cl)nc(Cl)nc43)c2n1	2.89 µM	> 26.3 µM	2.05 µM	4.63 µM	1.81 µM	4.13 µM	9.62 µM	25.4 µM	2.31 µM	5.58 µM	1.47 µM	3.32 µM	5.13 µM	10 µM	4.47 µM	9.57 µM	2.04 µM	5.53 µM	1.67 µM	3.33 µM
NCCCOc1cc(Cl)ccc1NC(=O)c1cc2ccccc2cc1OCCCN	1.31 µM	2.79 µM	1.71 µM	3.24 µM	1.47 µM	2.81 µM	2.02 µM	3.69 µM	1.8 µM	3.59 µM	1.5 µM	3.2 µM	–	–	1.62 µM	3.08 µM	1.41 µM	2.83 µM	1.58 µM	3.06 µM
COc1cc2c3c(n(CCCN(CCO)CCO)c(=O)c2cc1OC)-c1cc2c(cc1C3=O)OCO2	0.218 µM	12.7 µM	< 0.01 µM	0.628 µM	< 0.0159 µM	0.413 µM	1.55 µM	> 22.5 µM	< 0.0369 µM	0.842 µM	0.838 µM	20.7 µM	< 0.01 µM	0.17 µM	< 0.01 µM	0.0646 µM	–	2.12 µM	< 0.01 µM	1.71 µM
Oc1ccc(Oc2cnc3ccccc3n2)cc1	> 100 µM	> 100 µM	> 100 µM	> 100 µM	55.7 µM	> 100 µM	> 100 µM	> 100 µM	> 100 µM	> 100 µM	> 100 µM	> 100 µM	> 100 µM	> 100 µM	> 100 µM	> 100 µM	54.7 µM	> 100 µM	> 100 µM	> 100 µM
COc1ccc(-c2cc(Nc3ccnc(N4CCOCC4)n3)on2)cc1	0.239 µM	1.53 µM	0.329 µM	12.7 µM	0.189 µM	2.07 µM	1.48 µM	11.4 µM	0.0307 µM	0.121 µM	0.0645 µM	13 µM	0.0957 µM	14.8 µM	0.376 µM	8.4 µM	0.241 µM	24.2 µM	0.0914 µM	18.5 µM
C=C1C(O)C2C(=C(C)C13CC3)C(=O)C(C)(C)C2OC (stereo not given)	95.6 µM	> 100 µM	> 100 µM	> 100 µM	50.5 µM	> 100 µM	44.4 µM	> 100 µM	> 100 µM	> 100 µM	> 100 µM	> 100 µM	–	–	> 100 µM	> 100 µM	> 100 µM	> 100 µM	> 100 µM	> 100 µM
O=C(N/N=C/c1ccc(O)cc1O)c1cccnc1	2.8 µM	> 100 µM	2.42 µM	41.5 µM	3.3 µM	27.6 µM	3.33 µM	22.5 µM	7.52 µM	> 100 µM	0.614 µM	> 100 µM	2.8 µM	19.6 µM	4.28 µM	> 100 µM	4.14 µM	46.9 µM	4.34 µM	> 100 µM
CCOC(=O)C1=C(N)Oc2c(sc3c(C)cccc23)C1c1ccc(F)cc1 (stereo not given)	0.633 µM	5.77 µM	0.58 µM	17 µM	1.18 µM	8.49 µM	12.6 µM	27.7 µM	0.21 µM	0.464 µM	0.415 µM	10.9 µM	0.486 µM	14.5 µM	1.25 µM	17.9 µM	0.496 µM	14.8 µM	0.453 µM	15.9 µM
O=C(NNc1cnccn1)c1nc2cc(F)ccc2n2cccc12	0.331 µM	> 100 µM	0.363 µM	> 100 µM	1.07 µM	3.13 µM	0.515 µM	> 100 µM	0.873 µM	> 100 µM	0.183 µM	> 100 µM	0.34 µM	14.5 µM	0.572 µM	> 100 µM	0.527 µM	> 100 µM	0.397 µM	> 100 µM
CC(=O)NC1CONC1=O (stereo not given)	–	> 100 µM	–	> 100 µM	–	> 100 µM	–	> 100 µM	–	> 100 µM	–	> 100 µM	–	> 100 µM	–	> 100 µM	–	> 100 µM	–	> 100 µM
COc1ccc(-c2nn(-c3cccc(Cl)c3)cc2-c2nc(N)[nH]c(=O)c2C#N)cc1	7.65 µM	20.9 µM	3.66 µM	18.8 µM	4.07 µM	15.9 µM	5.69 µM	47.3 µM	2.16 µM	5.48 µM	5.07 µM	> 100 µM	3.25 µM	34 µM	4.65 µM	33.5 µM	6.3 µM	> 100 µM	4.38 µM	34.2 µM
COc1ccc(/C=C/c2cnccn2)cc1OC	–	> 10 µM	–	> 10 µM	–	> 10 µM	–	> 10 µM	–	> 10 µM	–	> 10 µM	–	> 10 µM	–	> 10 µM	–	> 10 µM	–	> 10 µM
Oc1ccc(N=Nc2nccs2)c(O)c1	3.21 µM	12 µM	4.5 µM	35.2 µM	3.44 µM	18.4 µM	16.4 µM	60.1 µM	4.77 µM	31 µM	2.85 µM	14.9 µM	11 µM	48.4 µM	3.61 µM	27.7 µM	8.08 µM	48.8 µM	5 µM	22.3 µM
NC(N)=N/N=C(\N=Nc1ccccc1)c1ccc(Cl)cc1	2.46 µM	5.36 µM	2.39 µM	7.55 µM	3.73 µM	14.8 µM	2.42 µM	6.37 µM	1.7 µM	4.36 µM	3.02 µM	14.9 µM	1.51 µM	4.39 µM	2.03 µM	8.36 µM	2.48 µM	11.3 µM	1.41 µM	3.54 µM
COc1ccc2c(c1)C(C)Cc1c(ncnc1-n1cnc3ccccc31)N2C (stereo not given)	0.33 µM	1.37 µM	0.59 µM	16.2 µM	0.368 µM	1.89 µM	13.6 µM	26.6 µM	0.2 µM	0.605 µM	0.367 µM	10.9 µM	0.313 µM	12.7 µM	0.591 µM	19.6 µM	0.409 µM	17.5 µM	0.379 µM	17.8 µM
Cn1cc(S(=O)(=O)N2CCC3=Cc4c(cnn4-c4ccc(F)cc4)C[C@]3(C(=O)c3cc(C(F)(F)F)ccn3)C2)cn1	> 100 µM	> 100 µM	> 100 µM	> 100 µM	57.7 µM	> 100 µM	> 100 µM	> 100 µM	> 100 µM	> 100 µM	> 100 µM	> 100 µM	> 100 µM	> 100 µM	> 100 µM	> 100 µM	31.4 µM	> 100 µM	> 100 µM	> 100 µM
c1ccc(NCCSc2nc3ccccc3s2)cc1	–	41.8 µM	–	> 100 µM	–	42.3 µM	–	77 µM	–	> 100 µM	–	43 µM	–	> 100 µM	–	> 100 µM	–	> 100 µM	–	> 100 µM
COc1cc(/C=C/C(=O)C(C(=O)/C=C/c2ccc(OC(=O)CCNC34CC5CC(CC(C5)C3)C4)c(OC)c2)C(=O)CCNC23CC4CC(CC(C4)C2)C3)ccc1OC(=O)CCNC12CC3CC(CC(C3)C1)C2 (stereo not given)	4.27 µM	17.8 µM	3.25 µM	11.3 µM	3.36 µM	13.4 µM	3.45 µM	14 µM	2.88 µM	35.3 µM	3.21 µM	7.51 µM	3.51 µM	13.9 µM	4.19 µM	> 100 µM	3.86 µM	25.1 µM	2.42 µM	6.48 µM
NCCCn1c2c(c3ccccc3c1=O)C(=O)c1ccccc1-2	0.105 µM	2.88 µM	0.0888 µM	1.42 µM	0.105 µM	0.948 µM	0.544 µM	2.19 µM	0.7 µM	3.07 µM	0.0762 µM	1.38 µM	0.628 µM	3.47 µM	0.119 µM	1.01 µM	0.451 µM	2.98 µM	0.0713 µM	5.83 µM
Cc1cc(NCCCCNc2ccnc3cc(Cl)ccc23)nc(Nc2ccc(C(=O)N3CCCCC3)cc2)n1	1.76 µM	3.51 µM	1.78 µM	3.56 µM	1.7 µM	3.07 µM	1.89 µM	3.42 µM	1.82 µM	3.42 µM	1.28 µM	3.13 µM	0.197 µM	0.383 µM	1.42 µM	2.97 µM	1.32 µM	3.24 µM	1.46 µM	3.04 µM
CC1(C)N=C(N)N=C(N)N1c1cccc(OCCOc2cccc([N+](=O)[O-])c2)c1	2.13 µM	> 100 µM	0.808 µM	> 100 µM	4.5 µM	33.5 µM	4.32 µM	> 100 µM	0.495 µM	> 100 µM	> 100 µM	> 100 µM	14.4 µM	> 100 µM	37 µM	> 100 µM	0.0906 µM	> 38.5 µM	1.93 µM	> 100 µM
